Assay results as given in patent publication US12239705B2, “Therapeutic mitigation of epithelial infection” (priority 2018, dated 2025).

What was measured:
PHFK cells [1] = assay: TEER barrier function of IL-4/13-treated PHFK exposed to P6; type: cell-based, human; settings: PHFK in IL-4 and IL-13 for two days; 50 or 100 nM; versus DMSO control
Protocol: TEER was taken daily. Data was normalized to Th2 treated samples (n=5-7 donors for TEER (SEM)). Significance was tested versus a DMSO control.

vaccinia virus = assay: Vaccinia virus plaque formation in IL-4/13-treated PHFK exposed to P6; type: cell-based; settings: PHFK in IL-4 and IL-13; 50 or 200 nM; 200 pfu VV; three days post infection; n=7 donors
PHFK cells [2] = assay: Cell viability of differentiated PHFK by LDH and WST-1 assay; settings: PHFK differentiated 2 days; 24 hours
Protocol: Briefly, PHFK cells were differentiated for 2 days in the same manner described above. […] Cell viability was measured by LDH and WST-1 assay 24 hours later.

CC(C)(C)c1nc2c3cc[nH]c(=O)c3c3cc(F)ccc3c2[nH]1 [P6, Pyridone 6]
barrier function (TEER normalized to Th2 treated samples) (PHFK cells [1]): improved barrier function in keratinocytes in a dose dependent manner
keratinocyte susceptibility to viral infection (plaque number normalized to IL-4/13 treated controls) (vaccinia virus): reversed keratinocyte susceptibility to viral infection in a dose dependent manner
concentration not toxic to keratinocytes (LDH and WST-1) (PHFK cells [2]): ≥ 1000 nM
